Source: ChEMBL document CHEMBL3046153, “Synthesis and antimicrobial evaluation of 4,5-diaryl-2-[4-(t-amino)-2-butynyl]-2,4-dihydro-3H-1,2,4-triazol-3-ones” (2012)
Converted amounts (≈) assume the structure as drawn.

Experiments:
Format in all cases: functional
Escherichia coli = assay: Antibacterial activity against Escherichia coli ATCC 25922 after 16 to 18 hr by NCCLS broth macrodilution method
Pseudomonas aeruginosa = assay: Antibacterial activity against Pseudomonas aeruginosa ATCC 27953 after 16 to 18 hr by NCCLS broth macrodilution method
Staphylococcus aureus = assay: Antibacterial activity against Staphylococcus aureus ATCC 29213 after 16 to 18 hr by NCCLS broth macrodilution method
Candida albicans = assay: Antifungal activity against Candida albicans clinical isolate after 24 hr by NCCLS broth macrodilution method

Row | MIC (Escherichia coli) [µg/mL] | MIC (Pseudomonas aeruginosa) [µg/mL] | MIC (Staphylococcus aureus) [µg/mL] | MIC (Candida albicans) [µg/mL] | Compound
1 | 12.5 (≈ 31.2 µM) | 50 (≈ 125 µM) | 12.5 (≈ 31.2 µM) | 25 (≈ 62.4 µM) | CC1CCCC(C)N1CC#CCn1nc(-c2ccccc2)n(-c2ccccc2)c1=O (stereo unspecified)
2 | 12.5 (≈ 32.3 µM) | 50 (≈ 129 µM) | 6.25 (≈ 16.2 µM) | 12.5 (≈ 32.3 µM) | O=c1n(CC#CCN2CCCCCC2)nc(-c2ccccc2)n1-c1ccccc1
3 | 6.25 (≈ 15.6 µM) | 25 (≈ 62.4 µM) | 6.25 (≈ 15.6 µM) | 12.5 (≈ 31.2 µM) | O=c1n(CC#CCN2CCCCCCC2)nc(-c2ccccc2)n1-c1ccccc1
4 | 50 (≈ 129 µM) | 100 (≈ 259 µM) | 12.5 (≈ 32.3 µM) | 25 (≈ 64.7 µM) | CC1CCCCN1CC#CCn1nc(-c2ccccc2)n(-c2ccccc2)c1=O (stereo unspecified)
5 | 12.5 (≈ 32.3 µM) | 50 (≈ 129 µM) | 12.5 (≈ 32.3 µM) | 12.5 (≈ 32.3 µM) | CC1CCCN(CC#CCn2nc(-c3ccccc3)n(-c3ccccc3)c2=O)C1 (stereo unspecified)
6 | 50 (≈ 139 µM) | 100 (≈ 279 µM) | 25 (≈ 69.7 µM) | 25 (≈ 69.7 µM) | O=c1n(CC#CCN2CCCC2)nc(-c2ccccc2)n1-c1ccccc1
7 | 50 (≈ 111 µM) | 100 (≈ 222 µM) | 50 (≈ 111 µM) | 50 (≈ 111 µM) | CC1CCCC(C)N1CC#CCn1nc(-c2ccccc2)n(-c2cccc3ccccc23)c1=O (stereo unspecified)
8 | 50 (≈ 115 µM) | 100 (≈ 229 µM) | 25 (≈ 57.3 µM) | 50 (≈ 115 µM) | CC1CCCN(CC#CCn2nc(-c3ccccc3)n(-c3cccc4ccccc34)c2=O)C1 (stereo unspecified)
9 | 50 (≈ 115 µM) | 50 (≈ 115 µM) | 25 (≈ 57.3 µM) | 25 (≈ 57.3 µM) | O=c1n(CC#CCN2CCCCCC2)nc(-c2ccccc2)n1-c1cccc2ccccc12
10 | 25 (≈ 55.5 µM) | 50 (≈ 111 µM) | 50 (≈ 111 µM) | 12 (≈ 26.6 µM) | O=c1n(CC#CCN2CCCCCCC2)nc(-c2ccccc2)n1-c1cccc2ccccc12
11 | 25 (≈ 57.5 µM) | 50 (≈ 115 µM) | 25 (≈ 57.5 µM) | 25 (≈ 57.5 µM) | CC1CCCC(C)N1CC#CCn1nc(-c2ccc(Cl)cc2)n(-c2ccccc2)c1=O (stereo unspecified)
12 | 50 (≈ 119 µM) | 100 (≈ 238 µM) | 12.5 (≈ 29.7 µM) | 50 (≈ 119 µM) | CC1CCCCN1CC#CCn1nc(-c2ccc(Cl)cc2)n(-c2ccccc2)c1=O (stereo unspecified)
13 | 50 (≈ 123 µM) | 100 (≈ 246 µM) | 12.5 (≈ 30.7 µM) | 25 (≈ 61.4 µM) | O=c1n(CC#CCN2CCCCC2)nc(-c2ccc(Cl)cc2)n1-c1ccccc1

Row | Compound | MIC (Escherichia coli) [µg/mL] | MIC (Pseudomonas aeruginosa) [µg/mL] | MIC (Staphylococcus aureus) [µg/mL] | MIC (Candida albicans) [µg/mL]
14 | CC(=O)N1CCN(c2ccc(OCC3COC(Cn4ccnc4)(c4ccc(Cl)cc4Cl)O3)cc2)CC1 (stereo unspecified) [KETOCONAZOLE] |  |  |  | 12.5 (≈ 23.5 µM)
15 | CC1COc2c(N3CCN(C)CC3)c(F)cc3c(=O)c(C(=O)O)cn1c23 (stereo unspecified) [OFLOXACIN] | 12.5 (≈ 34.6 µM) | 25 (≈ 69.2 µM) | 12.5 (≈ 34.6 µM) | 
